Measured values as given in patent USRE34313E, “Pharmaceutical compositions” (priority 1983, dated 1993).
Like-named read-outs stand apart in the source and are kept apart here.

Tests used:
Apotransferrin = experiment: Ability of iron complexes to donate iron to apotransferrin; format: biochemical; details: complex 10^-4 M, apotransferrin 10^-4 M, tris hydrochloride pH 7.4, 37° C., 10 minutes
Procedure: Apotransferrin (10^-4 M) and the iron complex of 1-hydroxy-4-methoxypyrid-4-one (10^-4 M; prepared as described in Example 7) were incubated together in tris hydrochloride (50 mM, buffered to pH 7.4) at 37° C. for 10 minutes when a 1 ml aliquot was removed from the medium and added to a PD10 colum. 0.5 ml fractions were collected directly into scintillation vials for counting.

physchem = details: pH 7.4; for Partition coefficient Kpart, Iron complex [FeIII-(compound)3]: 100 uM; for logD at 100 µM: tris hydrochloride 20 mm
Procedure: Acid washed glassware is used throughout and, following mixing of 5 ml of the 10^-4 M aqueous solution with 5 ml n-octanol for 1 minute, the aqueous n-octanol mixture is centrifuged at 1,000 g for 30 seconds. The two resulting phases are separated for a concentration determination by spectrophotometry on each. For the free hydroxypyridones, the range 220-340 nm is used for concentration determinations whilst for the iron complexes, the range […] is used.

[1] = log Ksol, affinity for iron(III); format: physicochemical
Description: In order to solubilise iron(III) hydroxide, log Ksol must be greater than 0 and in order to remove iron from transferrin, log Ksol should be in excess of 6.0.

Horse spleen ferritin [2] = experiment: Mobilisation of iron from ferritin; format: biochemical; details: 3×10^-3 M pyridone, ferritin 10^-6 M, pH 7.4, dialysis
Procedure: Horse spleen ferritin (Sigma) was without further purification and its iron content was estimated spectrophotometrically at 420 nm. The ferritin solution in phosphate buffered saline (Dulbecco-OXOID, 10^-6 M, pH 7.4) was enclosed in a Visking dialysis tube and dialysed against a 3×10^-3 M buffered solution of one of various pyridones as indicated in Table 2. The absorption spectrum of the resulting iron(III) complex in the dialysis solution was recorded after 6 and 24 hours. For comparative purposes, the procedure was repeated using a blank control.

Mice = experiment: In vivo test of iron binding capacity: excretion of 59Fe in iron-loaded mice; details: control = 100% excretion
Procedure: Mice were injected intraperitoneally with iron dextran (2 mg) at weekly intervals over a four week period. Two weeks after the final injection, the mice were injected via the tail vein with ^59 Fe Lactoferrin (human lactoferrin, 1 mg per injection 2 μCi). The mice were then caged individually. After a ten day period, 1,4-hydroxypyrid-2-one was administered to groups of 8 mice at 10 mg per mouse either intraperitoneally or intragastrically (in each case 3 of the mice received only one dose whilst 5 received 2 doses at a 24 hour interval). The excretion of iron was recorded at either 12 or 24 hourly intervals over a three day period before and a two day period after administration of the compound. For comparative purposes, the procedure was repeated with a blank control and with desferrioxamine, also at 10 mg per mouse (the intraperitoneally treated mice receiving one dose of desferrioxamine and the intragastrically treated mice two doses at a 24 hour interval).
The results are shown in Table 4, being given on the basis of the control representing 100% excretion, and illustrate the particular advantage of the pyridones as compared with desferrioxamine for oral administration. […] However, this is not the case here, the large SD values being a consequence of the large range among the positive responses.

Human transferrin = experiment: Mobilisation of iron from transferrin; format: biochemical; details: 4×10^-3 M compound, 59Fe(III) transferrin 10^-5 M; for Percentage of iron removed from transferrin, 6 hours: tris HCl pH 7.4, 6 hours; for Percentage of iron removed from transferrin, 24 hours: tris HCl pH 7.4, 24 hours
Procedure: The solution was then dialysed against phosphate buffered saline for 24 hours. The ^59 Fe remaining in the dialysis tube was then […]. For comparative purposes, this procedure was repeated with desferrioxamine and EDTA.

Horse spleen ferritin [3] = details: cited from earlier work
inverted rat jejunal sac = experiment: In vitro permeation of rat jejunal sac by iron complexes; details: uptake into serosal space of everted rat jejunal sac, 37° C., up to 1 hour, relative to ferric chloride as 1
Procedure: The iron uptake into the serosal space of the inverted rat jejunal sac was compared for various iron compounds. Rats (male Sprague Dawley, 60 g) were killed and the jejunum removed, everted and cut into three segments (4 cm length). The segments were tied at both ends and filled with Krebs Ringer buffer (0.2 ml) and incubated in Krebs Ringer buffer containing ^59 Fe complexes at 37° C. for periods up to 1 hour. The contents of the sac were counted for ^59 Fe and measured spectrophotometrically.

SMILES	Partition coefficient Kpart, Iron complex [FeIII-(compound)3] (physchem)	logD at 100 µM (physchem)	log Ksol [1]	Percentage of iron removed from ferritin, 6 hours (Horse spleen ferritin [2]) [%]	Percentage of iron removed from ferritin, 24 hours (Horse spleen ferritin [2]) [%]	Percentage of iron removed from transferrin, 6 hours (Human transferrin) [%]	Percentage of iron removed from transferrin, 24 hours (Human transferrin) [%]	other results
COc1ccn([O-])c(=O)c1.COc1ccn([O-])c(=O)c1.COc1ccn([O-])c(=O)c1.[Fe+3]	–	–	–	–	–	–	–	iron removed from the iron complex (donated to apotransferrin) (Apotransferrin): over 90%
O=c1cc(O)ccn1O [1,4-dihydroxypyrid-2-one]	0.04	-1.4	9.9	22	54	80	91	Excretion of 59Fe ± SD, Intraperitoneal Administration (Mice; 10 mg per mouse i.p.): 195 ± 57%; Excretion of 59Fe ± SD, Intragastric Administration (Mice; 10 mg per mouse intragastrically): 166 ± 40%
COCCOc1ccn(O)c(=O)c1 [1-hydroxy-4-(2'-methoxyethoxy)-pyrid-2-one]	0.6	-0.854	–	2	8	72	75	–
COc1ccn(O)c(=O)c1 [1-hydroxy-4-methoxypyrid-2-one]	4.85	-0.824	11.3	13	46	70	71	–
CC(=O)N(O)CCCCCNC(=O)CCC(=O)N(O)CCCCCNC(=O)CCC(=O)N(O)CCCCCN [Desferrioxamine, desferrioxamine, reference compound]	–	–	6.0	–	–	17	22	Percentage of iron removed from ferritin, 6 hours (Horse spleen ferritin [3]; 1 mM desferrioxamine, similar test from literature (Crichton et al)): 1.5%
O=C(O)CN(CCN(CC(=O)O)CC(=O)O)CC(=O)O [EDTA, ethylenediamine tetra-acetic acid, reference compound]	–	–	–	–	–	27	67	–
[Cl][Fe]([Cl])[Cl] [FeCl3, ferric chloride]	–	–	–	–	–	–	–	Relative Iron Uptake (inverted rat jejunal sac): 1
O=C([O-])[C@H](O)[C@@H](O)[C@H](O)[C@H](O)CO.O=C([O-])[C@H](O)[C@@H](O)[C@H](O)[C@H](O)CO.[Fe+2] [Fe^II gluconate]	–	–	–	–	–	–	–	Relative Iron Uptake (inverted rat jejunal sac): 1.6
O=C(NCCCCN(CCCNC(=O)c1cc(S(=O)(=O)O)cc(O)c1O)C(=O)c1cc(S(=O)(=O)O)cc(O)c1O)c1cc(S(=O)(=O)O)cc(O)c1O [LICAMS]	–	–	–	–	–	–	–	Percentage of iron removed from ferritin, 6 hours (Horse spleen ferritin [3]; 6 mM LICAMS + 12 mM ascorbic acid, similar test from literature (Tufano et al)): 7%
O=C(O)CN(CCN(CC(=O)O)CC(=O)O)CCN(CC(=O)O)CC(=O)O [diethylenetriamine pentaacetic acid, reference compound]	–	–	2.0	–	–	–	–	–
